Patent US9321768B2, “Indoles as respiratory syncytial virus antiviral agents” (JANSSEN SCIENCES IRELAND UC, priority 2010, dated 2016)
Read-outs that look alike come from different tables or passages of the source.

How the values were obtained:
rgRSV224 virus = experiment: microbe, parasite or virus in culture; format: cell-based, respiratory syncytial virus (RSV); conditions: human respiratory syncytial virus, HeLa, 72 h, read-out: WT activity EC50
Procedure: (§1) Black 96-well clear-bottom microtiter plates (Corning, Amsterdam, The Netherlands) were filled in duplicate using a customized robot system with serial 4-fold dilutions of compound in a final volume of 50 μl culture medium [RPMI medium without phenol red, 10% FBS, 0.04% gentamycin (50 mg/ml) and 0.5% DMSO]. Then, 100 μl of a HeLa cell suspension (5×10^4 cells/ml) in culture medium was added to each well followed by the addition of 50 μl rgRSV224 (MOI=0.02) virus in culture medium using a multidrop dispenser (Thermo Scientific, Erembodegem, Belgium). rgRSV224 virus is an engineered virus that includes an additional GFP gene (Hallak et al, 2000) and was in-licensed from the NIH (Bethesda, Md., USA). Medium, virus- and mockinfected controls were included in each test. Cells were incubated at 37° C. in a 5% CO2 atmosphere. Three days post-virus exposure, viral replication was quantified by measuring GFP expression in the cells by a MSM laser microscope (Tibotec, Beerse, Belgium). The EC50 was defined as the 50% inhibitory concentration for GFP expression. In parallel, compounds were incubated for three days in a set of white 96-well microtitier plates (Corning) and the cytotoxicity of compounds in HeLa cells was determined by measuring the ATP content of the cells using the ATPlite kit (PerkinElmer, Zaventem, Belgium) according to the manufacturer's instructions. The CC50 was defined as the 50% concentration for cytotoxicity.

[1] = Cytotoxicity in HeLa cells, ATP content (ATPlite kit); format: cell-based; conditions: human
Procedure: as §1

| Compound | EC50 (rgRSV224 virus) | CC50 at 3 days [1] | CC50 at 3 days ([1]; HeLa cells, three days incubation, ATP content, read-out: Toxicity CC50) |
| --- | --- | --- | --- |
| CS(=O)(=O)CCCn1c(Cn2c(=O)n(C3CC3)c3ccc(F)cc32)cc2cc(Br)ccc21 [Compound 6, 3-((5-Bromo-1-(3-(methylsulfonyl)propyl)-1H-indol-2-yl)methyl)-1-cyclopropyl-5-fluoro-1H-benzo[d]imidazol-2(3H)-one] | 1.6 nM | > 9840 nM | – |
| COc1ccc2c(c1)cc(Cn1c(=O)n(C3CC3)c3ccncc31)n2CCCCO [Compound 10, 1-Cyclopropyl-3-((1-(4-hydroxybutyl)-5-methoxy-1H-indol-2-yl)methyl)-1H-imidazo[4,5-c]pyridin-2(3H)-one] | 38.3 nM | > 9840 nM | – |
| N#CCCCCn1c(Cn2c(=O)n(C3CC3)c3ccncc32)cc2cc(Br)ccc21 [Compound 3, 5-((5-bromo-2-(1-cyclopropyl-2-oxo-1H-imidazo[4,5-c]pyridin-3(2H)-yl)methyl)-1H-indol-1-yl)pentanenitrile] | 0.452 nM | > 9840 nM | – |
| O=c1n(Cc2cc3cc(F)ccc3n2CCCCO)c2cnccc2n1C1CC1 [Compound 9, 1-Cyclopropyl-3-((5-fluoro-1-(4-hydroxybutyl)-1H-indol-2-yl)methyl)-1H-imidazo[4,5-c]pyridin-2(3H)-one] | 29.4 nM | 50300 nM | – |
| CCOC(=O)c1c(Cn2c(=O)n(C3CC3)c3ccncc32)n(CCC(C)C)c2ccccc12 [Compound 18, ethyl 2-((1-cyclopropyl-2-oxo-1H-imidazo[4,5-c]pyridin-3(2H)-yl)methyl)-1-isopentyl-1H-indole-3-carboxylate] | 3010 nM | – | 32100 nM |
| CS(=O)(=O)CCCn1c(Cn2c(=O)n(C3CC3)c3ccncc32)cc2cc(Cl)ccc21 [Compound 1, 3-((5-Chloro-1-(3-(methylsulfonyl)propyl)-1H-indol-2-yl)methyl)-1-cyclopropyl-1H-imidazo[4,5-c]pyridin-2(3H)-one] | 0.286 nM | > 9840 nM | – |
